Laboratory results taken from patent publication US9896415B2, “Chalcone derivatives having an anti-allergic activity” (UNIVERSITE CLAUDE BERNARD LYON I, priority 2013, dated 2018).
Entries after “also recorded” stand apart in the source; their conditions may differ. Where two headings read alike, the source gives them in different places.

Tests used:
normal human basophils = test: Degranulation of normal human basophils after anti-IgE antibody, CD63 and CD203c expression by flow cytometry; format: cell-based; conditions: 4 donors; for Emax: Homo sapiens, effect-dose study, 1 to 100 micromolars; for dose effect, CD63 marker / dose effect, CD203c marker: between 1 and 100 micromolars, no plateau effect
Source text: The compounds according to the invention have a substantial protective activity towards the degranulation of normal human basophils, such that it may be evaluated by the overexpression of CD203c and of CD63 after exposure to an anti-IgE antibody. In particular, the concentration of the compound according to the invention giving the possibility of obtaining a 50% protective effect (with respect to a value of 100% corresponding to the control achieved in the absence of a compound according to the invention) belongs to the range from 1 to 100 micromolar.
a) Activity on the Degranulation of Normal Human Basophils CD203c and CD 63
This test consists of analyzing with flow cytometry the expression of the membrane markers CD203c and CD63 on normal human basophils. For this blood from healthy donors is exposed to an antibody directed against immunoglobulins E (IgE) which leads to activation and degranulation of the basophils, causing an increase in the expression of CD203c and CD63. […] As the compounds of interest are dissolved in dimethylsulfoxide (DMSO), a control is also produced by incubating the basophils in the presence of DMSO without any active ingredient.

asthma model in mice = test: Ovalbumin (OVA) asthma model in mice: plethysmography, broncho-alveolar wash and lung cytology; format: in vivo; conditions: one day after last OVA challenge; for intrabronchial infiltrate: broncho-alveolar wash; for respiratory function: Penh in response to increasing doses of metacholine: non-invasive plethysmography, i.p. daily
Source text: b) Effect on the Respiratory Function in an Asthma Model in Mice
The compounds according to the invention were also subject to tests in vivo. Cromoglycate was used as a reference compound since presently it is the only compound presently marketed having been described as having an effect on the degranulation of basophils.
• The model used is an ovalbumin model (ova). The procedure includes: • 4 weeks of sensitization with ova solubilized in a solution containing alum and injected intra-peritoneally (I-P). • 1 week of challenge with 3 intranasal challenges of ova solubilized in phosphate buffer PBS for 3 subsequent days. • Injections of PBS, of compound (I.1) or of cromoglycate were carried out all along the challenge phase and continued until the date of analysis in an amount of one injection per day intra-peritoneally. • The analyses were carried out 1 and 5 days after the last intranasal challenge. • These analyses comprise:
One Day after the Last Challenge • an analysis the of the respiratory function by non-invasive plethysmography on 10 mice per group. The respiratory function is analysed in response to an increasing dose of metacholine (broncho-constrictor). • recovery and analysis of the broncho-alveolar wash (count of the number of cells, and cytological analysis) on 5 mice. • dissection of the lungs for cytological analysis (microscopic study after staining) on the same 5 mice.
Five Days after the Last Challenge • an analysis of the pulmonary resistance by the forced oscillation technique (invasive method) on the 5 remaining mice of different groups. The pulmonary resistance is analyzed in response to an increasing dose of metacholine (bronchoconstrictor). • recovery and analysis of the broncho-alveolar wash (counting the number of cells, and deposition on a slide by cytospin for cytological analysis) on these 5 mice.
A compound group (1.1) (n=10), an i-cm group (cromoglycate, n=10) and an i-PBS group (n=10).
The compound (I.1) is dissolved in a DMSO solution. This stock solution is then diluted in an ethanol:PBS (vol:vol) solution before intraperitoneal administration.
The Penh (enhanced pause) values, calculated from plethysmography measurements, express the prolongation of the expiratory pause time observed in subjects having a reduction of the bronchial calibre and are correlated with the respiratory resistance. A decrease in the Penh values therefore corresponds to a protective effect towards bronchoconstriction induced by OVA.

[1] = read-out: maximum effect on CD63
[2] = read-out: maximum effect on CD203c
[3] = flow cytometry cytology, compared with PBS group

| Structure (SMILES) | Emax (normal human basophils; [1]) | Emax (normal human basophils; [2]) | dose effect, CD63 marker (normal human basophils) | dose effect, CD203c marker (normal human basophils) | intrabronchial infiltrate (asthma model in mice; compared with PBS group) | T lymphocytes in the intrabronchial infiltrate (asthma model in mice; [3]) | eosinophils in the intrabronchial infiltrate (asthma model in mice; [3]) | intra-pulmonary hypereosinophilia (asthma model in mice; lungs, flow cytometry cytology) | respiratory function: Penh in response to increasing doses of metacholine (asthma model in mice; compared with PBS group) |
| --- | --- | --- | --- | --- | --- | --- | --- | --- | --- |
| COc1cc(OC)c(/C=C/C(=O)c2c(O)cc(OC)c(C3CCN(C)CC3)c2OC)c(OC)c1 [compound (I.1)] | 80% | 40% | A dose effect is observed | A dose effect is observed | significant decrease in the intrabronchial infiltrate | reduction | a reduction in the eosinophils | much less substantial | the difference is only significant for the dose at 40 mg/ml; also recorded: improves the respiratory function of the mice |
| COc1cccc(OC)c1/C=C/C(=O)c1c(O)cc(OC)c(C2CCN(C)CC2)c1OC [compound (I.2)] | 80% | 40% | A dose effect is observed | A dose effect is observed | – | – | – | – | – |
| COc1cc(O)c(C(=O)/C=C/c2c(Cl)cccc2Cl)c(OC)c1C1CCN(C)CC1 [compound (I.3)] | 80% | 40% | A dose effect is observed | A dose effect is observed | – | – | – | – | – |
| O=C(O)c1cc(=O)c2c(OCC(O)COc3cccc4oc(C(=O)O)cc(=O)c34)cccc2o1 [cromoglycate, reference compound] | – | – | – | – | does not exhibit any significant difference | – | does not show any significant reduction in the eosinophil infiltrate | – | same increases in Penh |
